Reference: patent US9226917B2, “Photodynamic therapy for conditions of the eye” (Valeant Pharmaceuticals International, Inc., priority 2008, dated 2016)

Assays:
CNV due to AMD = conditions: dosing every 3 months compared to continued monthly dosing, on average, over the following 9 months; cited from earlier work
[1] = system: subfoveal choroidal neovascularization (CNV) due to AMD; assay: RADICAL study: 24-month randomized, controlled trial of vPDT combination regimens versus ranibizumab monotherapy (visual acuity, retreatments, retinal thickness); type: in vivo, human
Protocol: (§1) The study is a 24-month randomized, controlled trial designed to evaluate 3 combination treatment regimens: (1) very low-fluence vPDT (15 J/cm^2) combined with ranibizumab (0.5 mg) and dexamethasone (0.5 mg); (2) half-fluence vPDT (25 J/cm^2) combined with ranibizumab and dexamethasone; and (3) half-fluence vPDT combined with ranibizumab. These regimens are compared with ranibizumab monotherapy in patients with subfoveal choroidal neovascularization (CNV) due to AMD. Inclusion criteria includes ≧50 years old; naïve to AMD treatment; best-corrected VA (BCVA) letter score of 73-24; subfoveal CNV due to AMD; and lesion size <9 DA. Patients (N=160) are randomly assigned to 1 of the 4 treatment arms at baseline, receive 1 initial treatment, and are to be evaluated for retreatment every month based on novel criteria using OCT and FA. Patients in the ranibizumab monotherapy group receive mandatory dosing at months 1 and 2, and as needed thereafter based on the same retreatment criteria. Patients in the combination therapy groups receive assigned treatment as needed (not more frequently than every 2 months), based on retreatment criteria; if treatment is required in an intervening month, then a ranibizumab injection is given. Study outcomes include efficacy, safety, and number of retreatments.
After their initial randomized study treatment, patients in the combination therapy groups return to the clinic monthly for re-treatment evaluation. Re-treatment criteria are based on optical coherence tomography (OCT) and fluorescein angiography (FA). If OCT central retinal thickness (CRT) is ≧250 μm or is increased >50 μm compared with the lowest previous CRT measurement, then the patient is re-treated.
Combination re-treatment is not administered more frequently than every 2 months. If re-treatment is found to be needed in an intervening month, the patient receives a ranibizumab injection only. After their initial randomized study treatment, patients in the ranibizumab monotherapy group receive mandatory re-treatment at months 1 and 2, and then re-treatment as needed thereafter based on the criteria described above. In all treatment arms, monthly assessments and potential re-treatments continue through 12 months of the study. Between 12 and 24 months, patients attend the clinic at least once every 3 months, or more frequently at the investigator's discretion.
Best-corrected visual acuity is assessed by the ETDRS method at screening, on the day of initial treatment (before treatment), at monthly visits through 6 months, and at the 12-, 18-, and 24-month visits. FA is assessed at screening, at the 3- and 12-month visits, and as required according to re-treatment criteria. OCT is assessed to determine retreatment criteria at every visit. Safety, including intraocular pressure, is also evaluated at every visit.
Study outcomes include visual acuity, CRT, lesion size, number of re-treatments, and safety. The primary efficacy variables are mean number of re-treatments and mean change from baseline in visual acuity score.
Randomization occurs on the day of the first treatment to one of the following groups: • Lucentis monotherapy. • Half-fluence Visudyne-Lucentis (V-L) double therapy. • Half-fluence (25 J/cm^2) Visudyne-Lucentis-Dexamethasone (V-L-D) triple therapy. • Very low-fluence (15 J/cm^2) Visudyne-Lucentis-Dexamethasone (V-L-D) triple therapy.
Treatments occur within 7 days of baseline FA. […]

[2] = RADICAL study: safety / adverse events; type: in vivo, human; conditions: 12 months
Protocol: as §1, with “Patients in the ranibizumab monotherapy group receive mandatory dosing at months 1 and 2, and as needed thereafter based on the same retreatment criteria. Patients in the combination therapy groups receive assigned treatment as needed (not more frequently than every 2 months), based on retreatment criteria; if treatment is required in an intervening month, then a ranibizumab injection is given. Study outcomes include efficacy, safety, and number of retreatments.” left out
Best-corrected visual acuity is assessed by the ETDRS method at screening, on the day of initial treatment (before treatment), at monthly visits through 6 months, and at the 12-, 18-, and 24-month visits. FA is assessed at screening, at the 3- and 12-month visits, and as required according to re-treatment criteria. OCT is assessed to determine retreatment criteria at every visit. Safety, including intraocular pressure, is also evaluated at every visit. […]

[3] = system: AMD and other retinal diseases; conditions: intravitreal injection, published case series; cited from earlier work

Substance | loss of visual acuity benefit (CNV due to AMD) | percentage of patients whose vision improved by 3 lines or more ([1]; 12 months) | Mean retreatment rate ([1]; ITT, 12 months, Day 0 treatment excluded) | Mean VA improvement from baseline (letters) ([1]; ITT, month 12) | Mean VA improvement from baseline (letters) ([1]; Per-protocol, 12 months) | Mean retreatment rate ([1]; Per-protocol, 12 months) | Ocular adverse events considered associated with treatment (share of patients) [2] | mean VA in treated patients [3]
ranibizumab [Lucentis monotherapy] | ~5 letter | 24% | 5.4 | 6.5 letters | 6.8 letters | 5.9 | approximately one-fourth | –
bevacizumab [Avastin] | – | – | – | – | – | – | – | increase of mean VA
